According to patent US11986470B2, “Methods of treating prostate cancer” (Janssen Pharmaceutica NV, priority 2016, dated 2024):
Where two headings read alike, the source gives them in different places.

What was measured:
22Rv1 cells = assay: cells; details: Homo sapiens, 22Rv1, 168 h
Method: (§1) In vitro cytotoxicity of niraparib was assessed in 5 human prostate cancer cell lines: C4-2B, LNCaP, LNCaP AR.TB, VCaP, and 22Rv1. C4-2B, LNCaP, LNCaP AR.TB, and 22Rv1 cell lines were grown in RPMI1640±GlutaMAX™-I medium (Life Technologies #61870-036) supplemented with 10% heat-inactivated fetal bovine serum (FBS) (Life Technologies 416140-071) and non-essential amino acids (NEAA) (Life Technologies #11140-050); and VCaP cells were grown in DMEM+GlutaMAX™-I medium (Life Technologies ##10569-010) with 10% FBS and NEAA. VCaP cells were subcultured every 7 days; other lines were split every 3-4 days. Cell growth kinetics of each cell line were determined by seeding cells at several densities and monitoring growth at intervals up to 7 days. Growth was determined using the Promega Cell TiterGlo reagent (#G7571) to measure cellular ATP by means of a chemiluminescent luciferin-luciferase reaction. […] For niraparib cytotoxicity experiments, cells were harvested by brief trypsinization and each line was seeded to the inner 60 wells of 96-well plates in 100 μL of medium at an appropriate density for a 7-day treatment. The outer wells of each plate were filled with Dulbecco's phosphate buffered saline (DPBS; Life Technologies #14190-144) to reduce evaporation from test wells. Cells were rested overnight in the plates at 37° C. in a humidified 5% CO2 incubator. […] The final vehicle concentration was 0.5% DMSO. Cells were cultured for 7 days. Relative cell viability after treatment was determined using Cell TiterGlo reagent, as above. All luminescent output values were normalized to percent inhibition based on mean luminescence of the untreated control wells, and the mean percent inhibition of the vehicle control wells was subtracted from each treatment value. Percent inhibition was plotted vs log μM concentration in GraphPad Prism 7.00. Nonlinear regression and calculation of EC50 values were performed using the log(agonist) vs. response—Variable slope (four parameters) fit.

C4-2B cells = assay: cells; details: 7-day niraparib treatment
Method: as §1

LNCaP AR.TB cells = assay: cells; details: Homo sapiens, 168 h
Method: as §1

LNCaP cells = assay: cells; details: Homo sapiens, 168 h
Method: as §1

VCaP cells = assay: cells; details: 7-day niraparib treatment
Method: as §1

[1] = tested on: poly(ADP)ribose (PAR) formation in C4-2B cells; details: 0.01-100 μM, two hours
Method: (§2) PAR inhibition using niraparib was assessed in 2 human prostate cancer cell lines, C4-2B and VCaP. The C4-2B cell line was grown in RPMI1640±GlutaMAX™-I medium supplemented with 10% FBS and NEAA and split every 3-4 days. VCaP cells were grown in DMEM+GlutaMAX™-I medium with FBS and NEAA and subcultured every 7 days.
(§3) Cells were harvested by brief trypsinization and each line was seeded into 6-well plates in 1 mL of medium at an appropriate density. An extra 500 μL of complete medium was added, for a total volume per well of 1.5 mL. Cells were rested overnight in the plates at 37° C. in a humidified 5% CO2 incubator. The next day, medium was removed from plates and cells were washed using 1 mL serum free medium (RPMI or DMEM respectively). Treatment was initiated by addition of 1 mL of niraparib (final concentrations 100, 10, 1, 0.1, 0.01 and 0 μM in 0.1% DMSO) in the appropriate medium to triplicate wells. Plates were returned to the incubator for two hours.
(§4) Following treatment, extracts were prepared using reagents and procedures provided in the HT PARP in vivo Pharmacodynamic Assay II (Trevigen #4520-096-K). Medium was removed from each well and placed into separate labeled microfuge tubes, and the plates were placed on ice. The tubes were spun at 1500 rpm for 4 minutes to pellet any cells that detached from the plate during drug incubation.
(§5) Samples were assayed in duplicate.

[2] = tested on: poly(ADP)ribose (PAR) formation in VCaP cells; details: 0.01-100 μM, two hours
Method: as §2, §3, §4, §5

γ-H2AX in 22RV1 cells = details: 22RV1 (printed 22AV1), 18 hours
[3] = tested on: γ-H2AX in LNCaP AR.TB cells; details: 18 hours
γ-H2AX in C4-2B cells = details: C4-2B (printed C4-28), 18 hours
[4] = tested on: C4-2B human prostate tumors
Method: This tumor model is not believed to be BRCA-1 or BRCA-2 deficient. Vehicle was 0.5% Methyl cellulose (MethocelTM [MUT]) prepared and kept at 4° C. in the dark. All formulations were made to be dosed at a volume of 10 ml/kg body weight. NSG male mice (Jackson Laboratories) were used. Animals were habituated for one week prior to any experimental procedures being performed. […] Mice were fed an autoclaved high fat (6%) diet laboratory chow and water ad libitum. Mice were injected with LNCaP C4-2B-luc tagged cells (1×10^6 tumors cells in a 200 μl volume of Cultrex®:RPMI 1640 medium (1:1 ratio) on the right flank. […] Mice were dosed daily by gavage (p.o.) with either vehicle, or vehicle containing niraparib as indicated below at 10 ml/kg dosing volume. Start of treatment=Day 1. Mice were treated through study day 24. […] For each individual animal, body weight and tumor volume [using the formula: Tumor Volume (mm3)=(a×b^2/2); where 'a' represents the length, and 'b' the width of the tumor as determined by caliper measurements], were monitored twice weekly throughout the study. For the pre-established tumors, a time-course of tumor growth is expressed as mean±standard error of the mean (SEM).

SMILES: NC(=O)c1cccc2cn(-c3ccc([C@@H]4CCCNC4)cc3)nc12 [niraparib, 2-[4-[(3S)-piperidin-3-yl]phenyl]indazole-7-carboxamide]
- EC50 (22Rv1 cells): 3.52 µM
- EC50 (C4-2B cells): 1.22 µM
- EC50 (C4-2B cells; Homo sapiens, 168 h): ~1.2 µM
- EC50 (LNCaP AR.TB cells): 2.14 µM
- EC50 (LNCaP cells): 3.5 µM
- EC50 (VCaP cells): 4.1 µM
- EC50 (VCaP cells; Homo sapiens, 168 h): 4.1 µM
- PAR (pg PAR/mg of protein) [1]: reduced in a dose-dependent fashion
- PAR (pg PAR/mg of protein) [2]: reduced in a dose-dependent fashion
- 1st Significant Concentration (minimum concentration that induces significant change in γ-H2AX) (γ-H2AX in 22RV1 cells): 1.57 µM
- 1st Significant Concentration (minimum concentration that induces significant change in γ-H2AX) [3]: 3.13 µM
- 1st Significant Concentration (minimum concentration that induces significant change in γ-H2AX) (γ-H2AX in C4-2B cells): 1.57 µM
- tumor growth inhibition (TGI) ([4]; 25 mg/kg QD p.o., days 22 and 24, not significant): ~12%
- tumor growth inhibition (TGI) ([4]; 50 mg/kg QD p.o., days 18, 22 and 24, significant): ~40%
